The source made the active and inactive calls.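 Rule for the calls: active = mean IC50 below 20 µM in each of the two panels, so potent in both; inactive = the rest.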
Target: Neuropilin-1 (Homo sapiens) (UniProt O14786)
Experiment: blockers of CendR peptide binding to NRP-1 – biochemical, FP and AlphaScreen panel, dose response (AID 651650)
Details: NRP-1 b1b2 / RPARPAR peptide binding, FP or AlphaScreen
[1] = AlphaScreen, run 1, individual panel run IC50
[2] = FP, run 1, individual panel run IC50
[3] = FP, run 2, individual panel run IC50

Neuropilin-1 (Homo sapiens), sequence (O14786 whole entry, looked up): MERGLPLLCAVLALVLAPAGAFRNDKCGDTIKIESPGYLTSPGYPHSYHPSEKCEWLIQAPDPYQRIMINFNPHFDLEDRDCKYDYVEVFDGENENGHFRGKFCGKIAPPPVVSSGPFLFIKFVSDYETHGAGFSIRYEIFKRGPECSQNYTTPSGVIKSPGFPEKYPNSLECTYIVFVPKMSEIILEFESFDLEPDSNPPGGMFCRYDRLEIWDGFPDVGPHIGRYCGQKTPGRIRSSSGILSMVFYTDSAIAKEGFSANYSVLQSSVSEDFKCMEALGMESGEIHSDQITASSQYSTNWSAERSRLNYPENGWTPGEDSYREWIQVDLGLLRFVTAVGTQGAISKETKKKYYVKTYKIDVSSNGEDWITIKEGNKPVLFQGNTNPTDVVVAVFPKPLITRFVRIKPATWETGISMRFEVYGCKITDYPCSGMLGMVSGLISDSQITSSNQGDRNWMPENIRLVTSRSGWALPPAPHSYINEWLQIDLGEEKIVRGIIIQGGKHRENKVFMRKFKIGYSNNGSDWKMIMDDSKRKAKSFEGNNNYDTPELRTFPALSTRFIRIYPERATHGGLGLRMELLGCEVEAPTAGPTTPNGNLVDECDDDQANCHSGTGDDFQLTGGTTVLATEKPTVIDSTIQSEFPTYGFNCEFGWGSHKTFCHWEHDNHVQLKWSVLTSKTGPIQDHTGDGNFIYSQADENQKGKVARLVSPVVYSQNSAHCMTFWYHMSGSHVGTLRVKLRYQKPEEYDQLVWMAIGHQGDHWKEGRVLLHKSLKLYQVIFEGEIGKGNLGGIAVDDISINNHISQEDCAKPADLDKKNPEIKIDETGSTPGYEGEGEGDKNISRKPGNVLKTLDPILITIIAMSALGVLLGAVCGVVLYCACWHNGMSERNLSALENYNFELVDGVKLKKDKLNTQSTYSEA

SMILES | IC50 (AlphaScreen, mean of runs) | IC50 [1] [µM] | IC50 (FP, mean of runs) | IC50 [2] [µM] | IC50 [3] [µM]
O=C(NNC(=O)c1ccccc1Cl)c1cccnc1 | 19.2 µM | 19.2 | > 95 µM (inactive) | > 95 | > 95
CC(=O)Nc1ccc(NC(=O)C2CC(=O)N(c3ccc(Cl)cc3)C2)cc1 (stereo not given) | 17.9 µM | 17.9 | > 95 µM (inactive) | > 95 | > 95
Cc1ccc(C2(O)CCN3CCCCC32)cc1 (stereo not given) | > 100 µM (inactive) | > 100 | > 95 µM (inactive) | > 95 | > 95
CC1(C)S[C@@H]2[C@H](NC(=O)COc3ccccc3)C(=O)N2C1C(=O)OCc1ccccc1 (stereo not given in full) | > 100 µM (inactive) | > 100 | > 95 µM (inactive) | > 95 | > 95
CCn1c(N)c(C(=O)NCc2cccnc2)sc1=S | 13 µM | 13 | inactive | > 95 | 30.1
CCOC(=O)C1(Cc2cccc(F)c2)CCN(Cc2ccon2)CC1 | 9.02 µM | 9.02 | > 95 µM (inactive) | > 95 | > 95
Cc1ccc(COn2c(-c3ccc(Cl)cc3Cl)nc3ncccc32)cc1 | > 100 µM (inactive) | > 100 | > 95 µM (inactive) | > 95 | > 95
CC1CCC(NC(=O)C2CCC(CNS(=O)(=O)c3cccc4cccnc34)CC2)CC1 (stereo not given) | > 100 µM (inactive) | > 100 | > 95 µM (inactive) | > 95 | > 95
C=C[C@]12CC[C@H](OC(C)=O)CC1=CCC1C2CC[C@@]2(C)C1CCC21OCCO1 (stereo not given in full) | > 100 µM (inactive) | > 100 | > 95 µM (inactive) | > 95 | > 95
O=C(NNC(=O)c1csc(N2CCOCC2)n1)c1ccc(=O)[nH]c1 | > 100 µM (inactive) | > 100 | > 95 µM (inactive) | > 95 | > 95
CC(O)(c1cccnc1)c1nc(/C=C/c2ccccc2)cs1 (stereo not given) | > 100 µM (inactive) | > 100 | > 95 µM (inactive) | > 95 | > 95
O=C(CSc1nnc(CNC(=O)C23CC4CC(CC(C4)C2)C3)n1-c1ccccc1)Nc1ccc(F)cc1 | > 100 µM (inactive) | > 100 | > 95 µM (inactive) | > 95 | > 95
CC(=O)C(=Cc1ccc(Cl)cc1)C(=O)c1ccccc1 | > 100 µM (inactive) | > 100 | > 95 µM (inactive) | > 95 | > 95
CCCc1c(O)c2ccccc2[nH]c1=O | > 100 µM (inactive) | > 100 | > 95 µM (inactive) | > 95 | > 95
Cc1nn(-c2ccccc2)c(C)c1C(=O)OCC(=O)Nc1ccccc1 | > 100 µM (inactive) | > 100 | > 95 µM (inactive) | > 95 | > 95
CC(=O)/C(=N\Nc1ccc(Cl)cc1Cl)Sc1cccc2cccnc12 | > 100 µM (inactive) | > 100 | > 95 µM (inactive) | > 95 | > 95
Cc1ccc(C(=O)OCC(=O)c2ccc(Cl)s2)s1 | > 100 µM (inactive) | > 100 | > 95 µM (inactive) | > 95 | > 95
O=S1(=O)CCOC[C@H](Cc2ccccc2)N1Cc1ccccc1F | > 100 µM (inactive) | > 100 | > 95 µM (inactive) | > 95 | > 95
COc1cccc(C(=O)N2N=C(c3ccccc3)CC2(O)C(F)(F)F)c1 (stereo not given) | > 100 µM (inactive) | > 100 | > 95 µM (inactive) | > 95 | > 95
CCOC(=O)/C=C/COc1ccccc1[N+](=O)[O-] | > 100 µM (inactive) | > 100 | > 95 µM (inactive) | > 95 | > 95
Cc1ccc(C(=O)C2CN3CCC2CC3)cc1 (stereo not given) | > 100 µM (inactive) | > 100 | > 95 µM (inactive) | > 95 | > 95
COc1ccc2c(c1OC)CN1CCc3cc4c(cc3[C@@H]1[C@@H]2O)OCO4 | > 100 µM (inactive) | > 100 | > 95 µM (inactive) | > 95 | > 95
Cn1c(=O)c2c(ncn2CC(COCc2ccccc2)OCc2ccccc2)n(C)c1=O (stereo not given) | > 100 µM (inactive) | > 100 | > 95 µM (inactive) | > 95 | > 95

SMILES | IC50 (AlphaScreen, mean of runs) | IC50 [1] [µM] | IC50 (FP, mean of runs) | IC50 [2] [µM] | IC50 [3] [µM]
O=C(CCCNC(=O)/C(=C\c1ccc(F)cc1)NC(=O)c1ccccc1)OCc1ccccc1 | > 100 µM (inactive) | > 100 | > 95 µM (inactive) | > 95 | > 95
O=C(OCn1nnc2ccccc2c1=O)c1ccc(Br)o1 | > 100 µM (inactive) | > 100 | > 95 µM (inactive) | > 95 | > 95
CC1(C)c2ccccc2C(=O)c2ccccc21 | > 100 µM (inactive) | > 100 | > 95 µM (inactive) | > 95 | > 95
Cc1cc(C)n2c(Nc3ccc4c(c3)OCCO4)c(-c3ccccn3)nc2n1 | > 100 µM (inactive) | > 100 | > 95 µM (inactive) | > 95 | > 95
Cc1ccc(Cn2c(C(C)Nc3nc(-c4ccc(Cl)c([N+](=O)[O-])c4)cs3)nc3cc(C(F)(F)F)ccc32)cc1 (stereo not given) | > 100 µM (inactive) | > 100 | > 95 µM (inactive) | > 95 | > 95
O=C(NCCN1CCN(C(=O)c2cccc(OC(F)F)c2)CC1)c1cccc(OC(F)F)c1 | > 100 µM (inactive) | > 100 | > 95 µM (inactive) | > 95 | > 95
CC1(C)CN=C(Nc2ccc(F)c(Cl)c2)S1 | 18.9 µM | 18.9 | > 95 µM (inactive) | > 95 | > 95
Cc1ccc(NC(=S)N2CCN(Cc3ccccc3)CC2)cc1 | > 100 µM (inactive) | > 100 | > 95 µM (inactive) | > 95 | > 95
CSCCC(NC(=O)c1ccc(Cl)cc1Cl)C(=O)NCC(c1cccs1)N(C)C (stereo not given) | > 100 µM (inactive) | > 100 | > 95 µM (inactive) | > 95 | > 95
O=C(NC1CC1)c1ccc(COc2ccc(F)cc2)o1 | > 100 µM (inactive) | > 100 | > 95 µM (inactive) | > 95 | > 95
O=C(CN1C2=NCCN2c2ccccc21)c1ccco1 | > 100 µM (inactive) | > 100 | > 95 µM (inactive) | > 95 | > 95
CC(OC(=O)c1ccco1)C(=O)Nc1nc(-c2ccccc2)cs1 (stereo not given) | > 100 µM (inactive) | > 100 | > 95 µM (inactive) | > 95 | > 95
COc1ccc2c(c1)N(C)/C(=C1/SC(=NCc3ccccc3)N(c3ccccc3)C1=O)S2 | > 100 µM (inactive) | > 100 | > 95 µM (inactive) | > 95 | > 95
CCCCn1nnnc1C(c1cc2ccccc2o1)N(C)Cc1ccc(Cl)c(Cl)c1 (stereo not given) | 12.7 µM | 12.7 | > 95 µM (inactive) | > 95 | > 95
CCO[C@@H]1OC(C(=O)NCc2ccccc2)=C[C@H](c2ccc(Br)cc2)[C@H]1CCCO | inactive | 22.1 | > 95 µM (inactive) | > 95 | > 95
Cc1nnc(SC(C)C(=O)Nc2ccc(S(=O)(=O)NC3CCCCC3)cc2)s1 (stereo not given) | > 100 µM (inactive) | > 100 | > 95 µM (inactive) | > 95 | > 95
O=C(NCCCN1CCCC(O)C1)c1cc(COc2ccc(F)cc2F)on1 (stereo not given) | > 100 µM (inactive) | > 100 | > 95 µM (inactive) | > 95 | > 95
O=C(O)c1cc(NCc2ccc(F)cc2)ccc1N1CCOCC1 | > 100 µM (inactive) | > 100 | > 95 µM (inactive) | > 95 | > 95
CCOc1ccc(N2C(=O)CC(N3CCN(c4ccc(Cl)cc4)CC3)C2=O)cc1 (stereo not given) | inactive | 22.2 | > 95 µM (inactive) | > 95 | > 95
C/C(=N\N=c1/sc2ccccc2n1C)c1ccccn1 | > 100 µM (inactive) | > 100 | > 95 µM (inactive) | > 95 | > 95
Cc1cc(NC(=O)COC(=O)c2ccc(C)c(C)c2)no1 | > 100 µM (inactive) | > 100 | > 95 µM (inactive) | > 95 | > 95
C[C@@H](NC(=O)c1[nH]cnc1C(=O)Nc1cccc(Cl)c1)c1ccccc1 | inactive | 21.8 | > 95 µM (inactive) | > 95 | > 95

— PubChem BioAssay AID651650 (Sanford-Burnham Center for Chemical Genomics, 2012)
